Reference: patent US9655362B2, “Fungicidal composition and method for controlling plant diseases” (ISHIHARA SANGYO KAISHA, LTD., priority 2003, dated 2017)
“And” between values parts separate entries of the source, which are not always exact repeats. Identical values can stand only once. One block for each compound: values may come before it.

Columns and labels:
[1] = test system: Erysiphe graminis; assay: Test on preventive effect against wheat powdery mildew; type: in vivo; parameters: key: % = treated/untreated average lesion area ×100
Experimental: Wheat (cultivar: […] After the chemical solution dried, conidia of Erysiphe graminis were dusted and inoculated and maintained in a constant temperature chamber at 20° C. […] The average lesion area in the non-treated plot was determined in the same manner as for the treated plot except that water was applied by a spray gun instead of the chemical solution. Disease rate=(a/b)×100 a: average lesion area in the treated plot b: average lesion area in the non-treated plot Theoretical values were calculated in accordance with the Colby's formula. The fungicidal composition of the present invention has a synergistic effect regarding the test on preventive effect against wheat powdery mildew, when the experimental value is lower than the theoretical value.

[2] = test system: Sphaerotheca cucurbitae; assay: Test on preventive effect against cucumber powdery mildew; type: in vivo; parameters: scale not given here
Experimental: Cucumber (cultivar: Suyo) was cultivated in a plastic pot having a diameter of 7.5 cm, and when it reached 1.5-leaf stage, 10 ml of a chemical solution having the compound of the present invention adjusted to a prescribed concentration, was applied by a spray gun. After the chemical solution dried, a suspension of conidia of Sphaerotheca cucurbitae was sprayed and inoculated and maintained in a constant temperature chamber at 20° C. From 6 to 11 days after the inoculation, the area of sporulation was investigated, and the disease rate was determined in the same manner as in Test Example 3, and the results are shown in Tables 54 to 96. The average lesion area in the non-treated plot was determined in the same manner as for the treated plot except that water was applied by a spray gun instead of the chemical solution.
Further, theoretical values by the Colby's formula are shown in brackets in Tables 54 to 96.

[3] = Compound No. alone, concentration 16 ppm
[4] = single agent, 4 ppm, area of sporulation 6 to 11 days after inoculation
[5] = single agent, 8 ppm, area of sporulation 6 to 11 days after inoculation
[6] = single agent, 1 ppm, area of sporulation 6 to 11 days after inoculation
[7] = single agent, 2 ppm, area of sporulation 6 to 11 days after inoculation
[8] = other fungicide alone, dose 3.1 g/ha
[9] = other fungicide alone, dose 12.5 g/ha
[10] = other fungicide alone, concentration 31 ppm
[11] = other fungicide alone, concentration 63 ppm
[12] = other fungicide alone, concentration 8 ppm
[13] = other fungicide alone, dose 1.6 g/ha
[14] = other fungicide alone, concentration 2 ppm
[15] = other fungicide alone, concentration 4 ppm
[16] = other fungicide alone, dose 6.3 g/ha
[17] = other fungicide alone, concentration 16 ppm

- melting point: 106 to 109 °C
Compound: COc1cc(C)c(C(=O)c2c(Cl)cnc(Cl)c2C(F)(F)F)c(OC)c1OC [Compound No. 39, 4-(2,3,4-trimethoxy-6-methylbenzoyl)-2,5-dichloro-3-trifluoromethylpyridine]
- Disease rate ([1]; Compound No. alone, dose 1.6 g/ha): 58.8
- Disease rate [2, 3]: 20
- Disease rate [2, 4]: 32.0
- Disease rate [2, 5]: 14.2

- melting point: 84 to 87 °C
Compound: COc1cc(C)c(C(=O)c2c(OC)ncc(Br)c2Cl)c(OC)c1OC [Compound No. 23, 3-(2,3,4-trimethoxy-6-methylbenzoyl)-5-bromo-4-chloro-2-methoxypyridine]
- Disease rate ([2]; Compound No. alone, concentration 2 ppm): 100
- Disease rate [2, 3]: 30.7
- Disease rate [2, 4]: 79.2
- Disease rate [2, 5]: 19.8
- Disease rate ([2]; single agent, 16 ppm, area of sporulation 6 to 11 days after inoculation): 2.4

Compound: O=c1c2cc(F)ccc2nc(-n2cncn2)n1-c1ccc(Cl)cc1Cl [Fluquinconazole]
- Disease rate ([1]; other fungicide alone, dose 50 g/ha): 30.0
- Disease rate ([1]; other fungicide alone, dose 200 g/ha): 7.5
- Disease rate ([1]; other fungicide alone, dose 400 g/ha): 2.5

- melting point: 117 to 119 °C
Compound: COc1cc(C)c(C(=O)c2c(OC)cnc(Cl)c2C(F)(F)F)c(OC)c1OC [Compound No. 40, 4-(2,3,4-trimethoxy-6-methylbenzoyl)-2-chloro-3-trifluoromethyl-5-methoxypyridine]
- Disease rate [2, 6]: 71.0
- Disease rate [2, 7]: 42.6

Compound: CCCC1COC(Cn2cncn2)(c2ccc(Cl)cc2Cl)O1 (centres unmarked) [Propiconazole]
- Disease rate [1, 8]: 100
- Disease rate [1, 9]: 11.6

Compound: Cc1ccc(-c2c(Cl)nc(C#N)n2S(=O)(=O)N(C)C)cc1 [Cyazofamid]
- Disease rate [2, 10]: 100
- Disease rate [2, 11]: 100

Compound: CO/C=C(/C(=O)OC)c1ccccc1Oc1cc(Oc2ccccc2C#N)ncn1 [Azoxystrobin]
- Disease rate [2, 10]: 100 and 80.4
- Disease rate [2, 11]: 100
- Disease rate ([2]; other fungicide alone, concentration 125 ppm): 100

Compound: COc1cc(C)c(C(=O)c2c(OC)ncc(Cl)c2C)c(OC)c1OC [Compound No. 35, 3-(2,3,4-trimethoxy-6-methylbenzoyl)-5-chloro-2-methoxy-4-methylpyridine]
- Disease rate [2, 3]: 80.4
- Disease rate [2, 6]: 56.8
- Disease rate [2, 7]: 14.2

Compound: CC#Cc1cc(C)nc(Nc2ccccc2)n1 [Mepanipyrim]
- Disease rate [2, 12]: 100

Compound: Fc1ccc([C@]2(Cn3cncn3)O[C@H]2c2ccccc2Cl)cc1 (racemic) [Epoxiconazole]
- Disease rate [1, 13]: 100

Compound: CC(C)(C)C(O)(CCc1ccc(Cl)cc1)Cn1cncn1 (centres unmarked) [Tebuconazole]
- Disease rate [2, 14]: 56.8
- Disease rate [2, 15]: 71.0

- melting point: 103 to 106 °C
Compound: COc1cc(C)c(C(=O)c2c(OC)cncc2C(F)(F)F)c(OC)c1OC [Compound No. 122, 4-(2,3,4-trimethoxy-6-methylbenzoyl)-3-methoxy-5-trifluoromethylpyridine]

Compound: FC(F)C(F)(F)OCC(Cn1cncn1)c1ccc(Cl)cc1Cl (centres unmarked) [Tetraconazole]
- Disease rate [1, 8]: 80.0
- Disease rate [1, 16]: 35.0
- Disease rate [2, 14]: 56.8
- Disease rate [2, 15]: 56.8

Compound: COc1cc(C)c(C(=O)c2c(OC)ccc(Br)c2C)c(OC)c1OC [Metrafenone]
- Disease rate [1, 8]: 100
- Disease rate [1, 16]: 80.0
- Disease rate [1, 9]: 60.0

Compound: CC(Cc1ccc(C(C)(C)C)cc1)CN1C[C@@H](C)O[C@@H](C)C1 (some centres unmarked) [Fenpropimorph]
- Disease rate ([1]; other fungicide alone, dose 25 g/ha): 100

Compound: Polyoxins
- Disease rate [2, 10]: 100 and 80.4 and 80.0

Compound: CC1(C)COC(C)(CCCc2ccc(Cl)cc2)N1C(=O)n1ccnc1.CC1(C)COC(C)(CCCc2ccc(Cl)cc2)N1C(=O)n1ccnc1.O=C(O)/C=C/C(=O)O (centres unmarked) [Oxpoconazole fumarate]
- Disease rate [2, 12]: 100 and 80.0
- Disease rate [2, 17]: 100 and 60.0
- Disease rate [2, 10]: 45.5 and 30.0

Compound: CC(C)(C)C(O)C(Oc1ccc(Cl)cc1)n1cncn1 (centres unmarked) [Triadimenol]
- Disease rate [1, 8]: 65
- Disease rate [1, 9]: 19.0

- melting point: 140 to 141 °C
Compound: COc1cc(C)c(C(=O)c2c(F)ncc(C)c2I)c(OC)c1OC [Compound No. 18, 3-(2,3,4-trimethoxy-6-methylbenzoyl)-2-fluoro-4-iodo-5-methylpyridine]

Compound: CC(C1CC1)C(O)(Cn1cncn1)c1ccc(Cl)cc1 (centres unmarked) [Cyproconazole]
- Disease rate [1, 9]: 15.0

Compound: CCCCCCCCCCCCc1ccc(S(=O)(=O)O)cc1.CCCCCCCCCCCCc1ccc(S(=O)(=O)O)cc1.CCCCCCCCCCCCc1ccc(S(=O)(=O)O)cc1.NC(N)=NCCCCCCCCNCCCCCCCCN=C(N)N [Iminoctadine albesilate]
- Disease rate [2, 15]: 85.9 and 93.8
- Disease rate [2, 12]: 83.9 and 60.7 and 45.0
- Disease rate [2, 17]: 35.3 and 30.0 and 49.4

Compound: CC1(C)COC(C)(CCCc2ccc(Cl)cc2)N1C(=O)n1ccnc1 (centres unmarked) [Oxpoconazole]
- Disease rate [2, 5]: 44.5

Compound: CC1(C)CCC(Cc2ccc(Cl)cc2)C1(O)Cn1cncn1 (centres unmarked) [Metconazole]
- Disease rate [1, 13]: 44.1
- Disease rate [1, 8]: 19.6
- Disease rate [1, 16]: 4.9

Compound: Clc1ccc(CSC(Cn2cncn2)=Nc2ccc(Cl)cc2Cl)cc1 [Imibenconazole]
- Disease rate [2, 12]: 100
